Reference: ChEMBL document CHEMBL1138536, “A Ser678Pro substitution in Fks1p confers resistance to echinocandin drugs in Aspergillus fumigatus” (Antimicrob Agents Chemother, 2007)
Converted amounts (≈) assume the structure as drawn. Numbered stars: 1 amine (or outer) side, 2 acyl side, 3 side chain; on linkers, the order of the positions; unused ones are H or OH. Bridge positions count the residues as written; N and C are the ends. Square brackets hold non-standard residues; d marks the D form. Peptide text beside a SMILES is read from it. * marks the point of attachment. hTyr(3S-OH,4S-OH,3'-OSO3H) = N[C@H](C(=O)O)[C@H](O)[C@@H](O)c1ccc(O)c(OS(=O)(=O)O)c1; pTerphenylCO(4''-OnC5H11) = CCCCCOc1ccc(-c2ccc(-c3ccc(C(=O)*)cc3)cc2)cc1; Orn(4R-OH,5R-OH) = O=C([C@H](C[C@@H](O)[C@@H](O)N[*:3])N[*:1])[*:2]; hTyr(3S-OH,4S-OH) = N[C@H](C(=O)O)[C@H](O)[C@@H](O)c1ccc(O)cc1; Pro(3S-OH,4S-Me) = C[C@H]1CN[C@H](C(=O)O)[C@H]1O; X1 = CCCCCOc1ccc(-c2cc(-c3ccc(C(=O)*)cc3)no2)cc1; Gln(3R-OH) = NC(=O)C[C@@H](O)[C@H](N)C(=O)O; Hyp = O=C(O)[C@@H]1C[C@@H](O)CN1

How the values were obtained:
[1] = test system: Aspergillus fumigatus; experiment: Antifungal activity against Aspergillus fumigatus expressing wild-type fks1 gene KU80delta after 24 to 48 hrs by broth dilution susceptibility test; assay type: functional; settings: read-out: MEC
[2] = test system: Aspergillus fumigatus; experiment: Antifungal activity against Aspergillus fumigatus expressing fks1 gene EMFR-S678P mutant after 24 to 48 hrs by broth dilution susceptibility test; assay type: functional; settings: read-out: MEC
[3] = test system: Aspergillus fumigatus; experiment: Antifungal activity against Aspergillus fumigatus expressing fks1 gene EMFR-S678P/WT mutant after 24 to 48 hrs by broth dilution susceptibility test; assay type: functional; settings: read-out: MEC
[4] = Inhibition of wild-type 1,3-beta-D-glucan synthase KU80delta from Aspergillus fumigatus assessed as incorporation of [3H]glucose
[5] = target: Fksp (Neosartorya fumigata (Aspergillus fumigatus), UniProt P87204, S678P); experiment: Inhibition of 1,3-beta-D-glucan synthase EMFR-S678P mutant from Aspergillus fumigatus assessed as incorporation of [3H]glucose
[6] = Inhibition of 1,3-beta-D-glucan synthase EMFR-S678P/WT mutant from Aspergillus fumigatus assessed as incorporation of [3H]glucose
[7] = test system: Aspergillus fumigatus; experiment: Ratio of IC50 for Aspergillus fumigatus 1,3-beta-D-glucan synthase EMFR-S678P mutant to IC50 for Aspergillus fumigatus wild-type 1,3-beta-D-glucan synthase KU80delta

Sequence of Fksp (P87204 entry or part of it S678P): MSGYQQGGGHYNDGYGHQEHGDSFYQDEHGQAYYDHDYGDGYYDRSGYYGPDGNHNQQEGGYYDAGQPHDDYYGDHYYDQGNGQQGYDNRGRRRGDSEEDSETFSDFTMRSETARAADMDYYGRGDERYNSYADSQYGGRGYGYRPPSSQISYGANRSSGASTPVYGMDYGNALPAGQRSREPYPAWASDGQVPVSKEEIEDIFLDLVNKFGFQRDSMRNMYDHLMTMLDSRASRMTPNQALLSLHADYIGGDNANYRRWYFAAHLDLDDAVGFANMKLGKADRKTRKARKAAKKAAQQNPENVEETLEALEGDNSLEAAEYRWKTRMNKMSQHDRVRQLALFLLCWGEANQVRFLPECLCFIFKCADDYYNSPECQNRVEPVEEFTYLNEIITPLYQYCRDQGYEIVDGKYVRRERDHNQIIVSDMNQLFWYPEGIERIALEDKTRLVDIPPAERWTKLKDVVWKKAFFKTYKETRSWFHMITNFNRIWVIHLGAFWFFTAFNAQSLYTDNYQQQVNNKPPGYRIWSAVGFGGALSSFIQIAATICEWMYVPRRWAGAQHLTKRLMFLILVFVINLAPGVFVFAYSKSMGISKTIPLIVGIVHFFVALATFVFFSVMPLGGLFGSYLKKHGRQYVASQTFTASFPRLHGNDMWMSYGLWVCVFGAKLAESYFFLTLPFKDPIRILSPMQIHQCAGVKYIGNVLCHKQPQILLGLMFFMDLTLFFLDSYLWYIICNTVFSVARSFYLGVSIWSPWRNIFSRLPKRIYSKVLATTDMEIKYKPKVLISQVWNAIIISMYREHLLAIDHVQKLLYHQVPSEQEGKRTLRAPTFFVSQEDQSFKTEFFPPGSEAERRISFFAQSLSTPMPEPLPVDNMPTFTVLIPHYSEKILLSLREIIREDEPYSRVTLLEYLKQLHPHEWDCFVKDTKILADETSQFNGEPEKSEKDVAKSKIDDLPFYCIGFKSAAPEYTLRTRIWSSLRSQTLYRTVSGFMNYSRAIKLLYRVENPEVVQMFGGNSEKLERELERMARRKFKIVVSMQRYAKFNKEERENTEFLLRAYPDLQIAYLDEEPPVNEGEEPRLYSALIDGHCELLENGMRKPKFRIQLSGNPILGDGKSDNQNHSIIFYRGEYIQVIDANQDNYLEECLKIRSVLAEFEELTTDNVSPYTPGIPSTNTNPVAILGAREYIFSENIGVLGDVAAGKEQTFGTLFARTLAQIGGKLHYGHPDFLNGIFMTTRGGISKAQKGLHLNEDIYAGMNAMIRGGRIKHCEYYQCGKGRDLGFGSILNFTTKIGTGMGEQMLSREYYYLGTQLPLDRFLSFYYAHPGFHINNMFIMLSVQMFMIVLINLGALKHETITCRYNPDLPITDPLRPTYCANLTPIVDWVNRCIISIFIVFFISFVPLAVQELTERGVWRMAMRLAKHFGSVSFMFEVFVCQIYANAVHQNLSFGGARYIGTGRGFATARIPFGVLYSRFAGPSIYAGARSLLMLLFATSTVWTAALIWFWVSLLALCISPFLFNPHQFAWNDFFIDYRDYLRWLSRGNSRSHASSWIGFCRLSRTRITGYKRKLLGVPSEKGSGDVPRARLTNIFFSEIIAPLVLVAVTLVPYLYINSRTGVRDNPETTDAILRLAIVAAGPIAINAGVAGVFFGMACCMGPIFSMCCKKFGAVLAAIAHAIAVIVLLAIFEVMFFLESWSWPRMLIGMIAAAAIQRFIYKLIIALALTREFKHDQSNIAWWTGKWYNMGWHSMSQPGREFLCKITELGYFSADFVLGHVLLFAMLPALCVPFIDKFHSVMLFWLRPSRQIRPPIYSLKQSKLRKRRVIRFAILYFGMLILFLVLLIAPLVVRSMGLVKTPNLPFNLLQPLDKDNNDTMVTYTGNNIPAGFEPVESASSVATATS

Structure (SMILES) | minimal effective concentration [1] | minimal effective concentration [2] | minimal effective concentration [3] | IC50 [4] | IC50 [5] | IC50 [6] | Ratio IC50 [7]
CCCCCOc1ccc(-c2cc(-c3ccc(C(=O)N[C@H]4C[C@@H](O)[C@@H](O)NC(=O)[C@@H]5[C@@H](O)[C@@H](C)CN5C(=O)[C@H]([C@H](O)CC(N)=O)NC(=O)[C@H]([C@H](O)[C@@H](O)c5ccc(O)c(OS(=O)(=O)O)c5)NC(=O)[C@@H]5C[C@@H](O)CN5C(=O)[C@H]([C@@H](C)O)NC4=O)cc3)no2)cc1 [MICAFUNGIN] (X1-[Orn(4R-OH,5R-OH)]T[Hyp][hTyr(3S-OH,4S-OH,3'-OSO3H)][Gln(3R-OH)][Pro(3S-OH,4S-Me)]; lactam 1-C) | 0.015 µg/mL | > 16 µg/mL | 8 µg/mL | 0.63 ng/mL (≈ 0.496 nM) | 9.93 nM | 0.5 ng/mL (≈ 0.394 nM) | 20
CC[C@H](C)C[C@H](C)CCCCCCCCC(=O)N[C@H]1C[C@@H](O)[C@@H](NCCN)NC(=O)[C@@H]2[C@@H](O)CCN2C(=O)[C@H]([C@H](O)CCN)NC(=O)[C@H]([C@H](O)[C@@H](O)c2ccc(O)cc2)NC(=O)[C@@H]2C[C@@H](O)CN2C(=O)[C@H]([C@@H](C)O)NC1=O [CASPOFUNGIN] | 0.25 µg/mL | > 16 µg/mL | > 16 µg/mL | 0.91 ng/mL (≈ 0.832 nM) | 100 nM | 0.12 ng/mL (≈ 0.11 nM) | 121
CCCCCOc1ccc(-c2ccc(-c3ccc(C(=O)N[C@H]4C[C@@H](O)[C@@H](O)NC(=O)[C@@H]5[C@@H](O)[C@@H](C)CN5C(=O)[C@H]([C@@H](C)O)NC(=O)[C@H]([C@H](O)[C@@H](O)c5ccc(O)cc5)NC(=O)[C@@H]5C[C@@H](O)CN5C(=O)[C@H]([C@@H](C)O)NC4=O)cc3)cc2)cc1 [ANIDULAFUNGIN] ({pTerphenylCO(4''-OnC5H11)}-[Orn(4R-OH,5R-OH)]T[Hyp][hTyr(3S-OH,4S-OH)]T[Pro(3S-OH,4S-Me)]; lactam 1-C) | 0.015 µg/mL | 16 µg/mL | 8 µg/mL | 0.24 ng/mL (≈ 0.21 nM) | 25.6 nM | 0.37 ng/mL (≈ 0.324 nM) | 122
